Measurements published in patent US20230085307A1, “PYRIDAZINONE COMPOUND AND HERBICIDE” (NISSAN CHEMICAL CORPORATION, priority 2019, published 2023).

Experiments:
[1] = tested on: blackgrass; assay: Test Example 5: herbicidal effect by foliage application, plastic box (Table 20, symbol J); type: in vivo, blackgrass (Alopecurus myosuroides); details: foliage application, evaluated three weeks after application; for herbicidal effect on J: blackgrass (criteria 0-5): 320 g/ha
How it was run: (§1)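 Plants were sown into sterilized diluvial soil under about 1.5 cm cover and kept in a greenhouse at 25° C. to 30° C. Fourteen days on, foliage received an even spray of the diluted emulsion. Herbicidal or crop effect was judged three weeks afterwards.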

[2] = tested on: barnyard grass; assay: Test Example 3: herbicidal effect by foliage application, Wagner pot (Table 18, symbol H); type: in vivo, barnyard grass (Echinochloa crus-galli); details: amount of applied herbicide 320 g/ha
How it was run: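 Plants were sown in alluvial soil held under 0.1–0.5 cm standing water and grown 14 days in a greenhouse at 25–30 °C. An emulsifiable formulation, water-diluted to the set dose, was then sprayed onto the foliage, and effects were scored three weeks later using previously defined criteria.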

[3] = tested on: redroot pigweed; assay: Test Example 4: herbicidal effect by soil treatment (Table 19, symbol N); type: in vivo, redroot pigweed (Amaranthus retroflexus); details: amount of applied herbicide 320 g/ha
How it was run: (§2)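 In this soil treatment, the formulated compound reached the seeds only through the soil: seeds were buried about 1.5 cm deep in sterilized diluvial soil, then the diluted emulsion was sprayed over the surface. After three weeks at 25° C. to 30° C. in a greenhouse, effects were graded on criteria from an earlier test.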

[4] = tested on: oval-leafed pondweed; assay: Test Example 2: herbicidal activity, application during weed generation under submerged conditions (Table 17, symbol C); type: in vivo, oval-leafed pondweed (Monochoria vaginalis); details: AAH 320 g/ha; application during weed generation, submerged conditions
How it was run: (§3)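 Mixed weed seedlings in alluvial soil under a 4 cm water layer, greenhouse-grown at 25–30° C. Compound given as a diluted emulsion into the floodwater at the 1–2 leaf stage; response graded after three weeks.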

[5] = tested on: persian speedwell; assay: Test Example 5: herbicidal effect by foliage application, plastic box (Table 20, symbol R); type: in vivo, Persian speedwell (Veronica persica); details: foliage application, evaluated three weeks after application; for herbicidal effect on R: persian speedwell (criteria 0-5): 320 g/ha
How it was run: as §1

[6] = tested on: velvetleaf; assay: Test Example 4: herbicidal effect by soil treatment (Table 19, symbol M); type: in vivo, velvetleaf (Abutilon theophrasti); details: amount of applied herbicide 320 g/ha
How it was run: as §2

[7] = tested on: velvetleaf; assay: Test Example 5: herbicidal effect by foliage application, plastic box (Table 20, symbol M); type: in vivo, velvetleaf (Abutilon theophrasti); details: foliage application, evaluated three weeks after application; for herbicidal effect on M: velvetleaf (criteria 0-5): 320 g/ha
How it was run: as §1

[8] = tested on: oval-leafed pondweed; assay: Test Example 1: herbicidal activity, application before weed generation under submerged conditions (Table 16, symbol C); type: in vivo, oval-leafed pondweed (Monochoria vaginalis); details: 320 g/ha applied herbicide
How it was run: (§4)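 Alluvial soil was flooded to 4 cm depth, weed seeds were sown mixed and 2.5-leaf rice seedlings were transplanted. On sowing day, the compound's emulsion, diluted in water to a set dose, was applied to the water surface. Plants grew at 25–30 °C and were scored 0–5 after three weeks.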

[9] = tested on: blackgrass; assay: Test Example 4: herbicidal effect by soil treatment (Table 19, symbol J); type: in vivo, blackgrass (Alopecurus myosuroides); details: amount of applied herbicide 320 g/ha
How it was run: as §2

[10] = tested on: barnyard grass; assay: Test Example 4: herbicidal effect by soil treatment (Table 19, symbol H); type: in vivo, barnyard grass (Echinochloa crus-galli); details: amount of applied herbicide 320 g/ha
How it was run: as §2

[11] = tested on: persian speedwell; assay: Test Example 4: herbicidal effect by soil treatment (Table 19, symbol R); type: in vivo, Persian speedwell (Veronica persica); details: amount of applied herbicide 320 g/ha
How it was run: as §2

[12] = tested on: southern crabgrass; assay: Test Example 5: herbicidal effect by foliage application, plastic box (Table 20, symbol F); type: in vivo, southern crabgrass (Digitaria ciliaris); details: foliage application, evaluated three weeks after application; for herbicidal effect on F: southern crabgrass (criteria 0-5): 320 g/ha
How it was run: as §1

[13] = tested on: green foxtail; assay: Test Example 5: herbicidal effect by foliage application, plastic box (Table 20, symbol G); type: in vivo, green foxtail (Setaria viridis); details: foliage application, evaluated three weeks after application; for herbicidal effect on G: green foxtail (criteria 0-5): 320 g/ha
How it was run: as §1

[14] = tested on: green foxtail; assay: Test Example 4: herbicidal effect by soil treatment (Table 19, symbol G); type: in vivo, green foxtail (Setaria viridis); details: amount of applied herbicide 320 g/ha
How it was run: as §2

[15] = tested on: Japanese bulrush; assay: Test Example 2: herbicidal activity, application during weed generation under submerged conditions (Table 17, symbol B); type: in vivo, Japanese bulrush (Schoenoplectus juncoides); details: AAH 320 g/ha; application during weed generation, submerged conditions
How it was run: as §3

[16] = tested on: windgrass; assay: Test Example 5: herbicidal effect by foliage application, plastic box (Table 20, symbol L); type: in vivo, windgrass (Apera spica-venti); details: foliage application, evaluated three weeks after application; for herbicidal effect on L: windgrass (criteria 0-5): 320 g/ha
How it was run: as §1

[17] = tested on: Japanese bulrush; assay: Test Example 1: herbicidal activity, application before weed generation under submerged conditions (Table 16, symbol B); type: in vivo, Japanese bulrush (Schoenoplectus juncoides); details: 320 g/ha applied herbicide
How it was run: as §4

Structure (SMILES) | herbicidal effect on J: blackgrass (criteria 0-5) [1] | herbicidal effect on H: barnyard grass [2] | herbicidal effect on N: redroot pigweed [3] | herbicidal effect rating, C: oval-leafed pondweed [4] | herbicidal effect on R: persian speedwell (criteria 0-5) [5] | herbicidal effect on M: velvetleaf [6] | herbicidal effect on M: velvetleaf (criteria 0-5) [7] | Herbicidal effect on C: oval-leafed pondweed (grade 0-5) [8] | herbicidal effect on J: blackgrass [9] | herbicidal effect on H: barnyard grass [10] | herbicidal effect on R: persian speedwell [11] | herbicidal effect on F: southern crabgrass (criteria 0-5) [12] | herbicidal effect on G: green foxtail (criteria 0-5) [13] | herbicidal effect on G: green foxtail [14] | herbicidal effect rating, B: Japanese bulrush [15] | herbicidal effect on L: windgrass (criteria 0-5) [16] | Herbicidal effect on B: Japanese bulrush (grade 0-5) [17] | further results
Cc1nn(C)c(=O)c(-c2c(-c3ccc(C(F)F)cc3)sc3ccc(F)cc23)c1O [2-227] | 3 (Herbicidal rate of 40% or more and less than 70%) | 5 (Herbicidal rate of 90% or more (almost completely withered)) | 5 (Herbicidal rate of 90% or more (almost completely withered)) | 0 (Herbicidal rate of 5% or less (almost no effect)) | 5 (Herbicidal rate of 90% or more (almost completely withered)) | 5 (Herbicidal rate of 90% or more (almost completely withered)) | 5 (Herbicidal rate of 90% or more (almost completely withered)) | 0 (Herbicidal rate of 5% or less (almost no effect)) | 1 (Herbicidal rate of 5% or more and less than 20%) | 5 (Herbicidal rate of 90% or more (almost completely withered)) | 4 (Herbicidal rate of 70% or more and less than 90%) | 5 (Herbicidal rate of 90% or more (almost completely withered)) | 4 (Herbicidal rate of 70% or more and less than 90%) | 4 (Herbicidal rate of 70% or more and less than 90%) | 2 (Herbicidal rate of 20% or more and less than 40%) | 0 (Herbicidal rate of 5% or less (almost no effect)) | 0 (Herbicidal rate of 5% or less (almost no effect)) | 
CCCSc1ccc(-c2sc3ccc(F)cc3c2-c2c(OC(=O)CCC)c(C)nn(C)c2=O)cc1 [2-249] | 4 (Herbicidal rate of 70% or more and less than 90%) | 5 (Herbicidal rate of 90% or more (almost completely withered)) | 5 (Herbicidal rate of 90% or more (almost completely withered)) | 2 (Herbicidal rate of 20% or more and less than 40%) | 5 (Herbicidal rate of 90% or more (almost completely withered)) | 1 (Herbicidal rate of 5% or more and less than 20%) | 5 (Herbicidal rate of 90% or more (almost completely withered)) | 0 (Herbicidal rate of 5% or less (almost no effect)) | 0 (Herbicidal rate of 5% or less (almost no effect)) | 4 (Herbicidal rate of 70% or more and less than 90%) | 4 (Herbicidal rate of 70% or more and less than 90%) | 5 (Herbicidal rate of 90% or more (almost completely withered)) | 5 (Herbicidal rate of 90% or more (almost completely withered)) | 4 (Herbicidal rate of 70% or more and less than 90%) | 0 (Herbicidal rate of 5% or less (almost no effect)) | 4 (Herbicidal rate of 70% or more and less than 90%) | 2 (Herbicidal rate of 20% or more and less than 40%) | 
Cc1nn(C)c(=O)c(-c2c(-c3ccc(SC(C)C)cc3)sc3ccc(F)cc23)c1O [2-252] | 5 (Herbicidal rate of 90% or more (almost completely withered)) | 5 (Herbicidal rate of 90% or more (almost completely withered)) | 5 (Herbicidal rate of 90% or more (almost completely withered)) | 2 (Herbicidal rate of 20% or more and less than 40%) | 5 (Herbicidal rate of 90% or more (almost completely withered)) | 2 (Herbicidal rate of 20% or more and less than 40%) | 5 (Herbicidal rate of 90% or more (almost completely withered)) | 1 (Herbicidal rate of 5% or more and less than 20%) | 0 (Herbicidal rate of 5% or less (almost no effect)) | 3 (Herbicidal rate of 40% or more and less than 70%) | 5 (Herbicidal rate of 90% or more (almost completely withered)) | 4 (Herbicidal rate of 70% or more and less than 90%) | 4 (Herbicidal rate of 70% or more and less than 90%) | 1 (Herbicidal rate of 5% or more and less than 20%) | 3 (Herbicidal rate of 40% or more and less than 70%) | 5 (Herbicidal rate of 90% or more (almost completely withered)) | 2 (Herbicidal rate of 20% or more and less than 40%) | 
CCCC(=O)Oc1c(C)nn(C)c(=O)c1-c1c(-c2ccc(SC(C)C)cc2)sc2ccc(F)cc12 [2-253] |  | 5 (Herbicidal rate of 90% or more (almost completely withered)) | 5 (Herbicidal rate of 90% or more (almost completely withered)) | 3 (Herbicidal rate of 40% or more and less than 70%) |  | 1 (Herbicidal rate of 5% or more and less than 20%) |  | 0 (Herbicidal rate of 5% or less (almost no effect)) | 0 (Herbicidal rate of 5% or less (almost no effect)) | 1 (Herbicidal rate of 5% or more and less than 20%) | 2 (Herbicidal rate of 20% or more and less than 40%) |  |  | 0 (Herbicidal rate of 5% or less (almost no effect)) | 3 (Herbicidal rate of 40% or more and less than 70%) |  | 3 (Herbicidal rate of 40% or more and less than 70%) | J: blackgrass, herbicidal effect (criteria 0-5) ([1]; AAH 320 g/ha): 4 (Herbicidal rate of 70% or more and less than 90%); R: persian speedwell, herbicidal effect (criteria 0-5) ([5]; AAH 320 g/ha): 5 (Herbicidal rate of 90% or more (almost completely withered)); M: velvetleaf, herbicidal effect (criteria 0-5) ([7]; AAH 320 g/ha): 5 (Herbicidal rate of 90% or more (almost completely withered)); F: southern crabgrass, herbicidal effect (criteria 0-5) ([12]; AAH 320 g/ha): 4 (Herbicidal rate of 70% or more and less than 90%); G: green foxtail, herbicidal effect (criteria 0-5) ([13]; AAH 320 g/ha): 5 (Herbicidal rate of 90% or more (almost completely withered)); L: windgrass, herbicidal effect (criteria 0-5) ([16]; AAH 320 g/ha): 3 (Herbicidal rate of 40% or more and less than 70%)
